# Results reported in publication PMC8148468, “Shikimic acid protects skin cells from UV-induced senescence through activation of the NAD+-dependent deacetylase SIRT1” (Aging (Albany NY), 2021).
# Where two headings read alike, the source gives them in different places.
# What was measured:
# [1] = tested on: primary human dermal fibroblasts (HDFs)
# From the text: In our efforts to identify novel factors that could prevent skin cell senescence, we developed a screening process to identify new modulators of the protective role of sirtuins in UV-induced senescence. For this purpose, we established a culture of primary human dermal fibroblasts (HDFs). […] Our first step in the screening was to establish the optimal concentrations of these compounds in the case of HDFs. […] Once established, we took these parameters into account to decide the specific working range of concentrations for each compound.
# Human dermal fibroblasts (HDFs) (Promocell, Germany) from 40-year old Caucasian women were used as the in vitro model for compound viability and efficacy screening. Cells were cultured in Dulbecco's modified eagle medium (DMEM) low glucose (Biowest, France) supplemented with 10% fetal bovine serum (FBS) (Capricorn Scientific, Germany) and 10 U/mL penicillin/streptomycin (Biowest, France) in a humidified incubator at 37° C and 5% CO2. For cell passage, cells at 80% confluence were trypsinized and plated at 60% confluence. Cells between passage 13 and 18 were used for the assays. For the SIRT1 in vitro assay, HEK293 cells (ATCC, USA), used to transfect and immunoprecipitate SIRT1 protein, were grown in DMEM high glucose (Thermo Fisher Scientific, USA), supplemented with 10% FBS in a humidified incubator at 37° C and 5% CO2. The following experiments were all performed in triplicate.
# (§1) The protocol for senescence induction using UVB irradiation is described in the Supplementary Methods. SA-β-Gal staining, WST-1, sulforhodamine B (SRB) and trypan blue assays were performed as previously described. For the siRNA experiments, the protocol for senescence induction using UVB irradiation was the same as in the Supplementary Methods. Specific siRNA (Horizon discovery, UK) for SIRT1, SIRT2, SIRT6, BiP or scramble siRNA were incubated for 6 hours before each irradiation step.
# [2] = tested on: H4K16ac (the target of SIRT1 and SIRT2); assay: Sirtuin activity assay in HDF: H4K16ac levels (Western blot); format: cell-based, human; conditions: HDF treated 24h; for SIRT1,2 H4K16ac: Figure 1B; as to SIRT1,2 H4K16ac: key: ↑: increase; ↓: decrease; hyphens that indicate no effect (-)
# Protocol: (§2) Figure 1 (A) Schematic representation of the compound testing for sirtuin activity evaluation in HDF. Cells were treated with or without the compounds for 24h and harvested for analysis. […] (C) Western Blot analysis and (D) quantification of H4K16ac and H3K9ac levels in cells treated with Resveratrol or Shikimic acid at the indicated concentrations. H4K16 and H3K9 levels were normalized to H4 and H3 levels respectively. Student T-test, *p<0.05, **p<0.01, ***p<0.001.
# (§3) HDFs were plated in 100x20 mm2 cell culture plates and after 24h, fresh cell culture medium containing the compounds was added. After 24h, cells were detached with cell scrapers, harvested, and processed for qPCR or western blot.
# (§4) Protein levels were analyzed as previously described. Cells were directly lysed in 1x Laemmli Buffer (Bio-Rad, USA), incubated at 95° C and centrifuged. Supernatant was subjected to SDS-polyacrylamide gel electrophoresis, and successive steps were performed as described. The list of antibodies used is included in Supplementary Table 2.
# [3] = tested on: UVB-irradiated human dermal fibroblasts (HDFs); assay: UVB-induced senescence assay: SA-β-Gal staining; format: cell-based; conditions: for β-Gal: HDF, 2 cycles of UVB, compound day 1 to 7, Figure 2B; for effect of sirtuin inhibitor on the protective effect of SA on senescence (SA-β-Gal and HAS2 expression): SA 10, 25, 50 mM plus EX-527 1 μM, AGK2 2 μM or OSS128167 200 μM; as to β-Gal: key: ↑: increase; ↓: decrease; hyphens that indicate no effect (-)
# Protocol: (§5) In the second approach, we established a method for inducing senescence in these cells with 2 cycles of UVB irradiation 72h apart (Figure 2A). The use of UVA to induce senescence was discarded due to its considerably longer time requirement, being unsuitable to screen 30 compounds within a reasonable period. Cells were treated with these compounds throughout the duration of the assay and cellular senescence was monitored with two markers: accumulation of SA-β-galactosidase (SA-β-Gal) activity, and the decrease in expression of HAS2 (hyaluronic acid synthase 2), a previously reported marker of skin senescence.
# (§6) Figure 2 (A) Schematic representation of the protocol for senescence induction using UVB irradiation. Cells were treated -/+ the compounds from day 1 to 7 after seeding, irradiated with UVB on days 2 and 5 and harvested for analysis on day 7. […] (C) Phase-contrast (left column) and bright field (right column) microscope images of SA-β-Gal staining showing non-irradiated cells, UVB-irradiated cells non-treated and treated with Gallic acid or Shikimic acid at the indicated concentrations. (D) Percentage of SA-β-Gal positive cells and (E) Relative HAS2 mRNA levels in non-irradiated cells, UVB-irradiated cells and UVB-irradiated cells treated with Gallic acid or Shikimic acid at the indicated concentrations. Student T-test, *p<0.05, **p<0.01, ***p<0.001.
# as §1
# (§7) Senescence induction by UVB irradiation For the non-irradiation control conditions, HDF were […]
# (§8) After 24h, culture medium was removed and well plates. After 24h, culture medium was removed replaced by fresh cell culture medium containing the and replaced with fresh cell culture medium containing compounds at different concentrations. After 24h, the compounds at different concentrations. […]
# (§9) cell culture medium was removed, and cells were cells/plate in fresh cell culture medium containing the irradiated at 25 mJ/cm2 of UVB light (312 nm) in a Bio- compound in 6-well plates. After 3 days, cells were […]
# (§10) amount of PBS. PBS was then removed and fresh cell fresh cell culture medium containing the compound in culture medium with the compound was added to each 6-well plates. After 2 days, cells were processed well. After 3 days, cells were irradiated again under the according to the qPCR, β-Gal staining, apoptosis, cell same conditions. After 2 days, cells were processed cycle or immunofluorescence protocols. according to the qPCR, β-Gal staining, apoptosis, cell cycle or immunofluorescence protocols.
# [4] = tested on: HAS2 (hyaluronic acid synthase 2); assay: UVB-induced senescence assay: HAS2 gene expression (qPCR); format: cell-based, human; conditions: HDF, 2 cycles of UVB, compound day 1 to 7, Figure 2B; also: key: ↑: increase; ↓: decrease; hyphens that indicate no effect (-)
# Protocol: as §5, §6
# RNA was extracted from cell pellets using the Total RNA Purification Kit (Norgen, Canada), according to the manufacturer’s protocol. Extracted RNA was quantified using a NanoDrop® ND-1000 UV-Vis Spectrophotometer (Thermo Fisher Scientific, USA) and 300 ng of RNA were retrotranscribed to cDNA using the PrimeScriptTM RT reagent kit (Takara Bio Inc., Japan). cDNA was diluted 1/10 in ultrapure water and qPCR mix was prepared by adding cDNA (12 ng), SYBR green supermix (Bio Rad, USA), forward and reverse primers (0.2μM). The primers and their respective sequences are listed in Supplementary Table 1. qPCR protocol included one step at 95° C for 30 s, 40 cycles at 95° C for 10s, and 60° C for 1min. The results were analyzed with Bio-Rad CFX Manager software. BACT was used as a housekeeping gene to normalize gene expression.
# as §7, §8, §9, §10
# [5] = tested on: H3K9ac (the target of SIRT1, SIRT2 and SIRT6); assay: Sirtuin activity assay in HDF: H3K9ac levels (Western blot); format: cell-based, human; conditions: HDF treated 24h; for SIRT1,2,6 H3K9ac: Figure 1B; as to SIRT1,2,6 H3K9ac: key: ↑: increase; ↓: decrease; hyphens that indicate no effect (-)
# Protocol: as §2, §3, §4
# [6] = HDFs, WST-1 cell viability test, maximum non-cytotoxic dose
# [7] = HDFs, WST-1 cell viability test
"Max. non-cyt. doses ([1]; female, human)",SMILES,"LD50 ([1]; female, human)","SIRT1,2 H4K16ac [2]",β-Gal [3],HAS2 expression [4],"Max. non-cyt. doses [1, 6]","SIRT1,2,6 H3K9ac [5]","LD50 [1, 7]",Max. non-cyt. doses [1],SA-β-Gal accumulation/staining ([3]; UVB-irradiated HDF),effect on H3K9ac levels [5],effect on H4K16ac levels [2],effect of sirtuin inhibitor on the protective effect of SA on senescence (SA-β-Gal and HAS2 expression) ([3]; UVB-irradiated HDF),"prevention of UV-induced cellular senescence ([3]; UVB-irradiated HDF, SA-β-Gal and HAS2 markers)"
50 mM,"NC(=O)NC1NC(=O)NC1=O (stereo not shown) [Allantoin, reference compound]",100 mM,-,-,-,,,,,,,,,
,"O=C(O)c1ccccc1O [Salicylic acid, reference compound]",,-,-,-,1 mM,-,,,,,,,
,C=C[C@](C)(O)CC[C@@H]1[C@@]2(C)CCCC(C)(C)[C@@H]2CC[C@@]1(C)O [Sclareol],,,-,-,0.02 mM,-,0.04 mM,,,,,,
0.01 mM,"COC1=C(OC)C(=O)C(CCCCCCCCCCO)=C(C)C1=O [Idebenone, reference compound]",0.021 mM,,-,-,,-,,,,,,,
,O=C(O)CCCC[C@@H]1CCSS1 (racemic) [Lipoic acid],,-,-,,,-,,1 mM,did not change the level of SA-β-Gal staining,,,,
,CC1=NCC[C@@H](C(=O)O)N1 [Ectoine],,-,-,-,,,359.12 mM,300 mM,,reduced the levels of H3K9ac only,,,
0.05 mM,"Oc1ccc(/C=C/c2cc(O)cc(O)c2)cc1 [Resveratrol, reference compound]",0.173 mM,,,-,,,,,increased SA-β-Gal staining,induced a similar effect on both targets,induced a similar effect on both targets,,
,"N#C/C(=C\c1ccc(-c2cc(Cl)ccc2Cl)o1)C(=O)Nc1cccc2ncccc12 [AGK2, reference compound]",,,,,,,,,,,,produced no clear effect,
,"O=Cc1ccc(O)c(O)c1 [3,4-dihydroxybenzaldehyde]",,,,,0.1 mM,,1.08 mM,,,induced a similar effect on both targets,induced a similar effect on both targets,,did not prevent cellular senescence
,C[C@@H]1O[C@@H](O[C@@H]2[C@@H](O)[C@H](OCCc3ccc(O)c(O)c3)O[C@H](CO)[C@H]2OC(=O)/C=C/c2ccc(O)c(O)c2)[C@H](O)[C@H](O)[C@H]1O [Verbascoside],,-,-,,0.05 mM,-,0.122 mM,,did not change the level of SA-β-Gal staining,,,,
,C/C(=C\CNc1ncnc2[nH]cnc12)CO [Zeatin],,-,-,-,1 mM,,2.462 mM,,,reduced the levels of H3K9ac only,,,
5 mM,"Cc1ncc(CO)c(CO)c1O [Pyridoxine, reference compound]",16.92 mM,-,-,-,,-,,,,,,,
,"O=C(Nc1ccc(O)c(C(=O)O)c1)c1cccc(NC(=O)c2ccco2)c1 [OSS128167, reference compound]",,,,,,,,,,,,produced no clear effect,
,COc1cc(-c2coc3cc4c(c(OC)c3c2=O)OCO4)cc(OC)c1OC [Irisflorentin],,-,-,,0.01 mM,-,0.049 mM,,,,,,
,COc1cc(/C=C/C(=O)O)ccc1O [Ferulic acid],,-,-,,,-,16.5 mM,7.5 mM,did not change the level of SA-β-Gal staining,,,,
150 mM,NCCS(=O)(=O)O [Taurine],396.58 mM,-,-,,,-,,,did not change the level of SA-β-Gal staining,,,,
,NCCC(=O)N[C@@H](Cc1cnc[nH]1)C(=O)O [Carnosine],,-,-,,25 mM,-,85.46 mM,,did not change the level of SA-β-Gal staining,,,,
0.05 mM,O=C(CCc1ccc(O)cc1)c1c(O)cc(O)cc1O [Phloretin],0.166 mM,,-,,,-,,,,,had an effect solely on H4K16ac,,
0.1 mM,O=C(O)c1cc(O)c(O)c(O)c1 [Gallic acid],0.179 mM,-,-,,,-,,,,,,,

SMILES,"Max. non-cyt. doses ([1]; female, human)","LD50 ([1]; female, human)","SIRT1,2 H4K16ac [2]",β-Gal [3],HAS2 expression [4],"Max. non-cyt. doses [1, 6]","SIRT1,2,6 H3K9ac [5]","LD50 [1, 7]",Max. non-cyt. doses [1],SA-β-Gal accumulation/staining ([3]; UVB-irradiated HDF),effect on H3K9ac levels [5],effect on H4K16ac levels [2],effect of sirtuin inhibitor on the protective effect of SA on senescence (SA-β-Gal and HAS2 expression) ([3]; UVB-irradiated HDF),"prevention of UV-induced cellular senescence ([3]; UVB-irradiated HDF, SA-β-Gal and HAS2 markers)"
C=C[C@@H]1C2=CCOC(=O)C2=CO[C@H]1O[C@@H]1O[C@H](CO)[C@@H](O)[C@H](O)[C@H]1O [Gentiopicrin],2.5 mM,,,-,-,,-,13.825 mM,,,,,,
